Results: article PMC3517626, “Targeting Fatty Acid Binding Protein (FABP) Anandamide Transporters – A Novel Strategy for Development of Anti-Inflammatory and Anti-Nociceptive Drugs” (PLoS ONE, 2012)
≈ marks a conversion by molar mass, not a printed value. One block for each compound: values may come before it.

Experiments:
[1] = Solubility in DMSO; type: physicochemical; settings: in DMSO at 25°C
[2] = target: T1, human FABP5 (Homo sapiens, UniProt Q01469); settings: cited from earlier work
T1 construct: FABP5 was purified and delipidated as described previously; made in house
T1 sequence (Q01469 whole entry): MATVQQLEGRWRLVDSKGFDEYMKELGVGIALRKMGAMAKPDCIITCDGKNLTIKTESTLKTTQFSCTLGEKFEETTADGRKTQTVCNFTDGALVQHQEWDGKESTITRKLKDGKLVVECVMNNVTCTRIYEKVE

[3] = target: T1, human FABP5; assay: Fluorescence displacement assay with NBD-stearate; type: binding; settings: test compound 10 µM, NBD-stearate 1 µM
Experimental: FABP5 was purified and delipidated as described previously. FABP5 (30 µg), NBD-stearate (1 µM), and a competitor test compound were incubated in 30 mM Tris-HCl, 100 mM NaCl buffer (pH 7.6). Competitors included arachidonic acid, BMS309403, 48 test compounds from ChemDiv library, SB-FI-26 and SB-FI-49. The initial assay was run with buffer (30 mM Tris-HCl buffer), negative controls (buffer and NBD-stearate), positive controls (buffer, NBD-stearate, FABP5), and experimental wells with a variable test compound added (arachidonic acid or one of the 48 test compounds) at 10 µM. […] The fluorescent assays were tested in the wells of Microtest 96-well Assay Plates, Optilux (BD Biosciences, Franklin Lakes, NJ) and loss of fluorescence intensity was measured with a FLUOstar OPTIMA spectrofluorometer set to excitation and emission wavelengths of 460 nm and 544 nm, respectively. […] The Kd of NBD-stearate for FABP5 had been determined previously through incubating FABP5 with increasing concentrations of NBD-stearate.

[4] = system: AEA uptake in HeLa cells; assay: AEA uptake in HeLa cells; type: cell-based
Experimental: AEA uptake assays in wild-type and FABP5 knockdown HeLa cells were performed exactly as described.

[5] = system: male C57Bl6 mice; assay: Formalin test; type: in vivo
Experimental: (§1) We used male C57Bl6 mice (22–30 g, Taconic Farms) for all experiments. The animals were group housed at room temperature and kept on a 12∶12 hour light∶dark cycle with ad libitum access to water and food. The animals were habituated to the experimental room for one week before testing.
Mice were habituated to the observation chamber (Plexiglas box, 25 cm×25 cm×25 cm) for 30 min prior to formalin injection. The mice subsequently received an injection of formalin (2.5% in saline, 20 µl) into the plantar surface of the right hind paw using a 27 gauge needle. The animals were immediately placed back into the observation chamber and nocifensive behavior (time spent licking or biting the paw) was recorded for 60 min. The formalin test consists of two phases with the first phase (0–5 min) reflecting nociceptor activation and the second phase (15–45 min) reflecting an inflammatory pain response.

[6] = system: CB1 receptors; assay: Patch-clamp electrophysiology in brain slices (EPSCs of dorsal raphe 5-HT neurons); type: cell-based; settings: bath application 10 µM; DR 5-HT neurons; n = 8; mean ± SEM
Experimental: Whole-cell-voltage clamp recordings of dorsal raphe (DR) serotonin (5-HT) neurons were performed as previously described. Briefly, DR neurons were visualized using an upright microscope (BX 51 WI, Olympus, Tokyo, Japan) equipped with a differential interference contrast and infrared imaging system. Somatic recordings from DR neurons were obtained with path electrodes ([…]) back-filled with potassium gluconate based internal solution of the following composition: 120 mM potassium gluconate, 10 mM KCl, 10 mM Na2-phosphocreatine, 10 mM HEPES, 1 mM MgCl2, 1 mM EGTA, 2 mM Na2-ATP, 0.25 mM Na-GTP, pH 7.3 (Adjusted with KOH; Osmolarity, 280 to 290 mOsmol/l). All the recordings were conducted in the presence of GABAA receptor antagonist picrotoxin (100 µM). Excitatory postsynaptic currents (EPSCs) were evoked with a single square stimulus (intensity, 1 to 10 V, duration, 100 to 200 µs) delivered via a glass stimulating electrode. […]
The amplitude of EPSCs was determined by measuring the average current during a 2-ms period at the peak of each EPSC and subtracted from the baseline current determined during a 5-ms time window before the stimulus. All EPSC amplitudes were normalized to the mean baseline amplitude recorded for at least 10 min before drug application. […]

[7] = target: T2, rat FAAH (Rattus norvegicus, UniProt P97612); assay: FAAH enzyme assay ([14C]AEA hydrolysis in HeLa homogenates); type: biochemical; settings: FAAH-transfected HeLa homogenates
T2 construct: expressed in transfected cells; host or cells: HeLa (homogenates)
T2 sequence (P97612 1-579): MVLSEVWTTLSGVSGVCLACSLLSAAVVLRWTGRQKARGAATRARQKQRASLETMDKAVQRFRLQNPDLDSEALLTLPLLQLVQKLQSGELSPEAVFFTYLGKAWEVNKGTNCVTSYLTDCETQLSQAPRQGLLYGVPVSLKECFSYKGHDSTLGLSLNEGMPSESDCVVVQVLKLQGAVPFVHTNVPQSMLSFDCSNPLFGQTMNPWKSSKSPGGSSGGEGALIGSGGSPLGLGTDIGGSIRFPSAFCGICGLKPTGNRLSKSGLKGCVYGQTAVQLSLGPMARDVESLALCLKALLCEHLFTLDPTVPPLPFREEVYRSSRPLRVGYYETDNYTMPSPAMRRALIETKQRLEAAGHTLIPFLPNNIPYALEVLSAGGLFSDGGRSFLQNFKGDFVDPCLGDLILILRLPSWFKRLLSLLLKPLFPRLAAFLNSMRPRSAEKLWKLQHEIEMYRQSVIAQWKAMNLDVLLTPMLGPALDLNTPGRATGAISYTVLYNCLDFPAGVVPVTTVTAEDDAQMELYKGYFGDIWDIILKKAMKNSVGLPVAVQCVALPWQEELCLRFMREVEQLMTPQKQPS
Experimental: Enzyme assays measuring the hydrolysis of [^14C]AEA in the presence of SB-FI-26 or the FAAH inhibitor URB597 were carried out in HeLa homogenates expressing rat FAAH as described.

[8] = target: T3, PPARα (Homo sapiens, UniProt Q07869); assay: PPARα transactivation in HeLa cells; type: cell-based; settings: reporter system, 6 hrs
T3 construct: expressed in transfected cells; host or cells: HeLa
T3 sequence (Q07869 1-468): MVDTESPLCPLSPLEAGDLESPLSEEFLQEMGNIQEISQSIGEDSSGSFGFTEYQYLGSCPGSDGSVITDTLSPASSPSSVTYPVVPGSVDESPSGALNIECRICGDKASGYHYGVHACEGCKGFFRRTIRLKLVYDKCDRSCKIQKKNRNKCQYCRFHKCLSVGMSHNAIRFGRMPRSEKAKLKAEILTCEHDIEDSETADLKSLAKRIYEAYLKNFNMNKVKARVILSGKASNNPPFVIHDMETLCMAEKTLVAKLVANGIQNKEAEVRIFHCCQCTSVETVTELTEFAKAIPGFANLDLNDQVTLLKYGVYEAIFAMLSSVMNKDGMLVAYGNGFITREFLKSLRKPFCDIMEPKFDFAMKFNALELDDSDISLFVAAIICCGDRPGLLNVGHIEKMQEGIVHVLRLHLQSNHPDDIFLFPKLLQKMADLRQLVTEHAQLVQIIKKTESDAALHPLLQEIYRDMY
Experimental: (§2) PPARα and PPARγ transactivation assays were performed in HeLa cells exactly as described. Briefly, cells were transfected with the PPAR reporter system, incubated with GW7647, rosiglitazone, or SB-FI-26 for 6 hrs, followed by measurement of luciferase and β-galactosidase activity using a luminometer as described.

[9] = target: T4, PPARγ (Homo sapiens, UniProt P37231); assay: PPARγ transactivation in HeLa cells; type: cell-based; settings: reporter system, 6 hrs
T4 construct: expressed in transfected cells; host or cells: HeLa
T4 sequence (P37231 1-505): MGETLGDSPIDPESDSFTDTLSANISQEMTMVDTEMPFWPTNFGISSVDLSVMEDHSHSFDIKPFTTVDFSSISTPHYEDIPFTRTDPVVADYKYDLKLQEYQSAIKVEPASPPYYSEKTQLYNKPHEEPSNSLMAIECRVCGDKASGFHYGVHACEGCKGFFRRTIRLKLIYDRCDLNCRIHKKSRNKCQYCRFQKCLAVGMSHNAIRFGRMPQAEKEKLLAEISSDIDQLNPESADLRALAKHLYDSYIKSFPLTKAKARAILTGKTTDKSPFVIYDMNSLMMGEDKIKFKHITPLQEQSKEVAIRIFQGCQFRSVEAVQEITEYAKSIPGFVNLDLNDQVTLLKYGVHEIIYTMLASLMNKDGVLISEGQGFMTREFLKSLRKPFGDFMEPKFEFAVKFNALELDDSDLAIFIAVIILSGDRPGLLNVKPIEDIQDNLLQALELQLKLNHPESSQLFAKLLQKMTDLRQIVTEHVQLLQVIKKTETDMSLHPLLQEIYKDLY
Experimental: as §2

[10] = system: male C57Bl6 mice; assay: Carrageenan-induced paw edema and thermal hyperalgesia; type: in vivo
Experimental: as §1
Paw edema was induced by injecting 1% λ-carrageenan (20 µl, in sterile saline) into the plantar surface of the left hind paw and a control solution of saline into the right hind paw using a 27 gauge needle. Paw diameters were measured before carrageenan injection and 4 hours after injection using digital electronic calipers (Fisher) and expressed to the nearest ±0.01 mm. SB-FI-26 (20 mg/kg, i.p.) was dissolved in ethanol∶emulphor∶saline (1∶1∶18), requiring sonication and gentle heating for solubilization, and administered 45 min prior to injection of carrageenan. The cannabinoid receptor antagonists, rimonabant and SR144528 (3 mg/kg, i.p.), in ethanol∶emulphor∶saline (1∶1∶18), were injected 15 min before the FABP inhibitor. Edema is reported as the change in paw diameter at 4 hr over the baseline. Changes in paw diameter of saline-injected contralateral paws were negligible. Thermal hyperalgesia measured the latency to withdraw the paw from a focused beam of radiant heat applied to the plantar surface of the hind paw using a Hargreaves plantar apparatus (Ugo Basile) set at an intensity of 3.0. For each mouse, the average latencies consisted of three trials spaced at least 5 minutes apart. The mice were habituated to the test chamber for 30 min. The cutoff time was set at 30 sec.

Structure (SMILES): CCc1c(-c2ccccc2)c(-c2ccccc2)nn1-c1ccccc1-c1cccc(OCC(=O)O)c1 [BMS309403, reference compound]
solubility [1]: 1 mM (≈ 475 µg/mL)

Structure (SMILES): CCCCCCC(CCCCCCCCCCC(=O)O)N(C)c1ccc([N+](=O)[O-])c2nonc12 (centres unmarked) [NBD-stearate, 12-N-methyl-(7-nitrobenz-2-oxa-1,3-diazo)aminostearic acid]
Kd ([2]; one site binding analysis, determined previously, read-out: Kd of NBD-stearate for FABP5): 160 nM

Structure (SMILES): Cn1c(C(=O)O)c(CC(=O)N2CCC(Cc3ccccc3)CC2)c2ccccc21 [SB-FI-31]
inhibition at 10 µM [3]: ≥ 50%

Structure (SMILES): O=C(O)[C@H]1[C@@H](c2ccccc2)[C@H](C(=O)Oc2cccc3ccccc23)[C@@H]1c1ccccc1 [SB-FI-49, γ-Truxillic acid 1-naphthyl ester]
solubility [1]: 0.2 mM (≈ 84.5 µg/mL)

Structure (SMILES): CCCCC/C=C\C/C=C\C/C=C\C/C=C\CCCC(=O)O [arachidonic acid]
Ki ([2]; arachidonic acid, positive control, binding to FABP5, ref not given): 130 nM

Further lines, with some results ahead:

inhibition at 10 µM [3]: ≥ 50%
Structure (SMILES): COc1cccc([C@@H]2Oc3ccccc3[C@@H]3CC(c4cccs4)=CN32)c1CC(=O)O [SB-FI-19]

solubility [1]: 1 mM (≈ 422 µg/mL)
nocifensive behavior when administered alone ([5]; intraplantar injection of 20 µg, no formalin): did not evoke nocifensive behavior
inhibition of FAAH (AEA hydrolysis) [7]: does not inhibit FAAH
activation of PPARα [8]: ~2 fold
activation of PPARγ [9]: ~3 fold
paw edema when administered alone ([10]; without carrageenan): did not induce paw edema
Structure (SMILES): O=C(O)[C@H]1[C@@H](c2ccccc2)[C@H](C(=O)Oc2cccc3ccccc23)[C@@H]1c1ccccc1 [SB-FI-26, α-Truxillic acid 1-naphthyl ester]
AEA uptake ([4]; HeLa cells bearing a knockdown of FABP5 (shRNA)): failed to reduce AEA uptake
cellular AEA accumulation (AEA uptake) ([4]; wild-type HeLa cells): significantly inhibited cellular AEA accumulation
nocifensive behavior, first phase of the formalin test ([5]; 20 mg/kg, i.p., first phase 0–5 min): significantly reduced nocifensive behavior
amplitude of EPSCs [6]: 107±6.7 % of baseline
carrageenan-induced thermal hyperalgesia ([10]; 20 mg/kg, i.p., 45 min prior to carrageenan): significantly reduced
carrageenan-induced paw edema ([10]; 20 mg/kg, i.p., 45 min prior to carrageenan, paw diameter at 4 hr): significantly reduced
antinociceptive and anti-edematous effects after pretreatment with rimonabant and SR144528 ([10]; SB-FI-26 20 mg/kg i.p., antagonists 3 mg/kg i.p. 15 min before): completely reversed

inhibition at 10 µM [3]: ≥ 50%
Structure (SMILES): O=C(O)[C@H]1CC(=O)N(Cc2ccc3c(c2)OCO3)/C(=N/c2ccc(F)cc2)S1 [SB-FI-27]
